Experimental findings from patent US8580747B2, “Cyclic natriuretic peptide constructs” (Palatin Technologies, Inc., priority 2006, dated 2013) are described below.

The structures appear in SMILES notation. Like-named read-outs stand apart in the source and are kept apart here. Bridge positions count the residues as written; N and C are the ends. Square brackets hold non-standard residues; d marks the D form. Peptide text beside a SMILES is read from it. * marks the point of attachment. Piperazin2one(3S-Bu,6R-CO) = CCCC[C@@H]1NC[C@H](C(=O)*)NC1=O; X1 = N=C(N)NCCC[C@H]1C(=O)N[C@@H](C(N)=O)CN1*; X3 = CC(C)C[C@@H]1NC[C@H](C(=O)*)NC1=O; dNle = CCCC[C@@H](N)C(=O)O; Nle = CCCC[C@H](N)C(=O)O

The conditions of data set [1]: rat, in vivo, iv.
The target in data set [2] is T1, NEP (neutral endopeptidase) (Homo sapiens, UniProt P08473).
T1 construct: purchased R&D Systems, Minneapolis, Minn; 1182-ZN
T1 sequence (P08473 52-750 limits assumed): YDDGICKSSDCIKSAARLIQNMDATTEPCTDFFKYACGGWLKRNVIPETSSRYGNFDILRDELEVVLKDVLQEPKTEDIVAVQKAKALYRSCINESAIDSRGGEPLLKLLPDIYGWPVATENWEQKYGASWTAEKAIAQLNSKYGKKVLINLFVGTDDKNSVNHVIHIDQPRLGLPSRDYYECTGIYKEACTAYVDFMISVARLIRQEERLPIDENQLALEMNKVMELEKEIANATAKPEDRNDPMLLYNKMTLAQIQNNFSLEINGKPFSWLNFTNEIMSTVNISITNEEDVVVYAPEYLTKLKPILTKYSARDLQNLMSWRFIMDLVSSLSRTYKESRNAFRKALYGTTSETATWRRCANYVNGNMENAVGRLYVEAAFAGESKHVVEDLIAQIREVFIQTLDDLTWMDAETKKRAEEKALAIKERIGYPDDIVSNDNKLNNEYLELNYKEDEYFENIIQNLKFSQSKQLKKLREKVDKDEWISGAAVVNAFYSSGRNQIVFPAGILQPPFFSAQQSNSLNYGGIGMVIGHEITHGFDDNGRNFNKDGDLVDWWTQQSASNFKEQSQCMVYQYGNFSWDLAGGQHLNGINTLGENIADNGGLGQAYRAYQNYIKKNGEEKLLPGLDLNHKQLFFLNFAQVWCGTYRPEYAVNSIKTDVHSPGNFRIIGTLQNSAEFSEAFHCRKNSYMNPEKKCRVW
As to the kind of experiment: hNEP resistance assay (digestion by neutral endopeptidase). It counts as in vitro ADME. As to conditions: human, isolated enzyme neprilysin, pH 7.4. The protocol:
NEP resistance of various constructs of the invention was evaluated using the following experimental procedure. All constructs were diluted in 0.1 M Tris-HCL buffer (pH 7.4) to 100 μM. 40 μL of diluted constructs were added to each tube and all tubes were kept on ice. 40 μL of diluted NEP, either human recombinant NEP (R&D Systems, Minneapolis, Minn., catalogue #1182-ZN) at 8 ng/μL or mouse NEP (R&D Systems, catalog #1126-ZN) at 2.5 ng/μL, was added to each tube. The tubes were mixed gently and spun. […] At the end of the incubation time, the reaction was stopped by adding 5 μL of 10% TFA. […] The extent to which NEP was active against the constructs was then analyzed by HPLC and/or LC/MS. Data analysis included determining the percent of remaining starting material, i.e., undigested peptide construct, and the percent and sequence of each proteolytic fragment.

For `CCCC[C@@H]1NC[C@H](C(=O)N[C@H]2CSSC[C@@H](C(=O)N[C@@H](Cc3ccc(O)cc3)C(=O)N3C[C@H](C(N)=O)NC(=O)[C@@H]3CCCNC(=N)N)NC(=O)[C@H](CO)NC(=O)[C@H]([C@@H](C)CC)NC(=O)[C@H](CCCNC(=N)N)NC(=O)[C@H](CC(=O)O)NC(=O)[C@H](CCCC)NC(=O)[C@H](CCCNC(=N)N)NC(=O)CNC(=O)CNC(=O)[C@H](Cc3ccccc3)NC(=O)[C@@H](Cc3c[nH]cn3)NC2=O)NC1=O` [1-28] ({Piperazin2one(3S-Bu,6R-CO)}-C[dH]FGGR[Nle]DRISCY-X1; disulfide 1-12), in data set [1] (2 mg/kg), the area under the curve (AUC) (in general, concentration integrated over time) came to 0.351 µM·h; the distribution volume (Vd) – broadly, a proportionality between amount in the body and measured concentration, not a real space – turned out to be 1.1 L/kg; the clearance (commonly the volume of plasma or blood freed of the substance per unit of time) came out at 51 mL/min/kg; the half-life (commonly the time needed for the level to fall by half in the phase considered) was 24 min.

Consider `CCCC[C@@H]1NC[C@H](C(=O)N[C@H]2CSSC[C@@H](C(=O)N[C@@H](Cc3ccc(O)cc3)C(=O)N3C[C@H](C(N)=O)NC(=O)[C@@H]3CCCNC(=N)N)NC(=O)[C@H](CO)NC(=O)[C@H]([C@@H](C)CC)NC(=O)[C@H](CCCNC(=N)N)NC(=O)[C@H](C)NC(=O)[C@H](CCCC)NC(=O)[C@H](CCCNC(=N)N)NC(=O)CNC(=O)CNC(=O)[C@H](Cc3ccccc3)NC(=O)[C@H](Cc3c[nH]cn3)NC2=O)NC1=O` [1-35], for which, in data set [1] (2 mg/kg), the AUC is 0.01 µM·h, the distribution volume (Vd) came to 57 L/kg, the clearance was found to be 1860 mL/min/kg and the half-life is 24 min.

In data set [1] (2 mg/kg), `CCCC[C@@H]1NC[C@H](C(=O)N[C@H]2CSSC[C@@H](C(=O)N[C@@H](Cc3ccc(O)cc3)C(=O)N3C[C@H](C(N)=O)NC(=O)[C@@H]3CCCNC(=N)N)NC(=O)[C@H](CO)NC(=O)[C@H]([C@@H](C)CC)NC(=O)[C@H](CCCNC(=N)N)NC(=O)[C@H](CC(=O)O)NC(=O)[C@H](CCCC)NC(=O)[C@H](CCCNC(=N)N)NC(=O)CNC(=O)CNC(=O)[C@@H](Cc3ccccc3)NC(=O)[C@H](Cc3c[nH]cn3)NC2=O)NC1=O` [1-39] ({Piperazin2one(3S-Bu,6R-CO)}-CH[dF]GGR[Nle]DRISCY-X1; disulfide 1-12) had an AUC of 0.142 µM·h, a Vd of 2.8 L/kg, a clearance of 134 mL/min/kg and a half-life of 18 min.

In data set [1] (2 mg/kg), `CCCC[C@@H]1NC[C@H](C(=O)N[C@H]2CSSC[C@@H](C(=O)N[C@@H](Cc3ccc(O)cc3)C(=O)N3C[C@H](C(N)=O)NC(=O)[C@@H]3CCCNC(=N)N)NC(=O)[C@H](CO)NC(=O)[C@H]([C@@H](C)CC)NC(=O)[C@H](CCCNC(=N)N)NC(=O)[C@H](CC(=O)O)NC(=O)[C@H](CCCC)NC(=O)[C@@H](CCCNC(=N)N)NC(=O)CNC(=O)CNC(=O)[C@H](Cc3ccccc3)NC(=O)[C@H](Cc3c[nH]cn3)NC2=O)NC1=O` [1-42] ({Piperazin2one(3S-Bu,6R-CO)}-CHFGG[dR][Nle]DRISCY-X1; disulfide 1-12) showed an AUC of 0.369 µM·h, a Vd of 0.7 L/kg, a clearance of 50 mL/min/kg and a half-life of 18 min.

On to `CCCC[C@@H]1NC[C@H](C(=O)N[C@H]2CSSC[C@@H](C(=O)N[C@@H](Cc3ccc(O)cc3)C(=O)N3C[C@H](C(N)=O)NC(=O)[C@@H]3CCCNC(=N)N)NC(=O)[C@H](CO)NC(=O)[C@H]([C@@H](C)CC)NC(=O)[C@H](CCCNC(=N)N)NC(=O)[C@H](CC(=O)O)NC(=O)[C@@H](CCCC)NC(=O)[C@H](CCCNC(=N)N)NC(=O)CNC(=O)CNC(=O)[C@H](Cc3ccccc3)NC(=O)[C@H](Cc3c[nH]cn3)NC2=O)NC1=O` [1-43] ({Piperazin2one(3S-Bu,6R-CO)}-CHFGGR[dNle]DRISCY-X1; disulfide 1-12), for which, in data set [2], the amount remaining – broadly, what is left of the initial amount, in per cent – at 1 h, 50 µM amounted to 97% and the amount remaining at 2 h, 50 µM was 92%. This molecule also showed a clearance in data set [1] of 14 mL/min/kg. In addition, in data set [1] (2 mg/kg), the AUC amounted to 1.25 µM·h, the Vd worked out at 0.6 L/kg, the clearance is 14 mL/min/kg and the half-life was 42 min.

For the molecule `CCCC[C@@H]1NC[C@H](C(=O)N[C@H]2CSSC[C@@H](C(=O)N[C@@H](Cc3ccc(O)cc3)C(=O)N3C[C@H](C(N)=O)NC(=O)[C@@H]3CCCNC(=N)N)NC(=O)[C@H](CO)NC(=O)[C@H]([C@@H](C)CC)NC(=O)[C@H](CCCNC(=N)N)NC(=O)[C@@H](CC(=O)O)NC(=O)[C@H](CCCC)NC(=O)[C@H](CCCNC(=N)N)NC(=O)CNC(=O)CNC(=O)[C@H](Cc3ccccc3)NC(=O)[C@H](Cc3c[nH]cn3)NC2=O)NC1=O` [1-44] ({Piperazin2one(3S-Bu,6R-CO)}-CHFGGR[Nle][dD]RISCY-X1; disulfide 1-12), in data set [2], the amount remaining at 1 h, 50 µM came out at 93% and the amount remaining at 2 h, 50 µM was determined as 86%. Also, the clearance in data set [1] is 15 mL/min/kg. In data set [1] (2 mg/kg), the exposure (AUC) came to 1.54 µM·h, the Vd was determined as 0.4 L/kg, the clearance was found to be 15 mL/min/kg and the half-life is 30 min.

In the case of `CCCC[C@@H]1NC[C@H](C(=O)N[C@H]2CSSC[C@@H](C(=O)N[C@@H](Cc3ccc(O)cc3)C(=O)N3C[C@H](C(N)=O)NC(=O)[C@@H]3CCCNC(=N)N)NC(=O)[C@H](CO)NC(=O)[C@H]([C@@H](C)CC)NC(=O)[C@@H](CCCNC(=N)N)NC(=O)[C@H](CC(=O)O)NC(=O)[C@H](CCCC)NC(=O)[C@H](CCCNC(=N)N)NC(=O)CNC(=O)CNC(=O)[C@H](Cc3ccccc3)NC(=O)[C@H](Cc3c[nH]cn3)NC2=O)NC1=O` [1-45] ({Piperazin2one(3S-Bu,6R-CO)}-CHFGGR[Nle]D[dR]ISCY-X1; disulfide 1-12), in data set [1] (2 mg/kg), the AUC stood at 0.85 µM·h, the distribution volume (Vd) came to 0.3 L/kg, the clearance came out at 23 mL/min/kg and the half-life was 18 min.

`CCCC[C@@H]1NC(=O)[C@H](CCCNC(=N)N)NC(=O)CNC(=O)CNC(=O)[C@H](Cc2ccccc2)NC(=O)[C@H](Cc2c[nH]cn2)NC(=O)[C@@H](NC(=O)[C@H]2CN[C@@H](CC(C)C)C(=O)N2)CSSC[C@@H](C(=O)N[C@@H](Cc2ccc(O)cc2)C(=O)N2C[C@H](C(N)=O)NC(=O)[C@@H]2CCCNC(=N)N)NC(=O)[C@H](CO)NC(=O)[C@H]([C@@H](C)CC)NC(=O)[C@H](CCCNC(=N)N)NC(=O)[C@H](CC(=O)O)NC1=O` [1-51] (X3-CHFGGR[Nle]DRISCY-X1; disulfide 1-12): in data set [1] (2 mg/kg), the AUC was 0.19 µM·h, the Vd was 1 L/kg, the clearance is 94 mL/min/kg and the half-life is 12 min.

Consider `CCCC[C@@H]1NC[C@H](C(=O)N[C@H]2CSSC[C@@H](C(=O)N[C@@H](Cc3ccc(O)cc3)C(=O)N3C[C@H](C(N)=O)NC(=O)[C@@H]3CCCNC(=N)N)NC(=O)[C@H](CO)NC(=O)[C@H]([C@@H](C)CC)NC(=O)[C@H](CCCNC(=N)N)NC(=O)[C@H](CC(=O)O)NC(=O)[C@H](CCCC)NC(=O)[C@H](CCCNC(=N)N)NC(=O)CNC(=O)[C@@H](C)NC(=O)[C@H](Cc3ccccc3)NC(=O)[C@H](Cc3c[nH]cn3)NC2=O)NC1=O` [1-68], for which, in data set [1] (2 mg/kg), the exposure (AUC) was determined as 0.478 µM·h, the distribution volume (Vd) stood at 0.5 L/kg, the clearance is 40 mL/min/kg and the half-life is 18 min.

On to `CCCC[C@@H]1NC[C@H](C(=O)N[C@H]2CSSC[C@@H](C(=O)N[C@@H](Cc3ccc(O)cc3)C(=O)N3C[C@H](C(N)=O)NC(=O)[C@@H]3CCCNC(=N)N)NC(=O)[C@H](C)NC(=O)[C@H]([C@@H](C)CC)NC(=O)[C@H](CCCNC(=N)N)NC(=O)[C@H](CC(=O)O)NC(=O)[C@H](CCCC)NC(=O)[C@H](CCCNC(=N)N)NC(=O)CNC(=O)CNC(=O)[C@H](Cc3ccccc3)NC(=O)[C@H](C)NC2=O)NC1=O` [1-69] ({Piperazin2one(3S-Bu,6R-CO)}-CAFGGR[Nle]DRIACY-X1; disulfide 1-12), for which, in data set [1] (2 mg/kg), the AUC is 0.113 µM·h, the distribution volume (Vd) was 0.8 L/kg, the clearance worked out at 168 mL/min/kg and the half-life was 6 min.
